Read-outs that look alike come from different tables or passages of the source.
Key:
[1] = test system: CLDN18.2 expression in cancer cells; settings: WO2013/174510; Tureci 2019; cited from earlier work
[2] = test system: CLDN18 expression in DANG cells; experiment: CLDN18 exogenous regulation in vitro: CLDN18 staining of treated DANG cells; type: cell-based, human

Row | Molecule | CLDN18.2 expression levels in cancer cells [1] | CLDN18 expression (percentage of CLDN18+ cells) [2] | also measured
1 | O=c1[nH]cc(F)c(=O)[nH]1 [5-fluorouracil, 5-fluoro-1H-pyrimidine-2,4-dione] | upregulate existing CLDN18.2 expression levels in cancer cells | – | –
2 | Nc1ccn([C@@H]2O[C@H](CO)[C@@H](O)C2(F)F)c(=O)n1 [Gemcitabine, 4-amino-1-(2-deoxy-2,2-difluoro-β-D-erythro-pentofuranosyl)pyrimidin-2(1H)-one] | upregulate existing CLDN18.2 expression levels in cancer cells | – | CLDN18 expression (mean fluorescence intensity, fold change on untreated) ([2]; DANG cells, 48 hours treatment, FIG. 7): induced CLDN18 expression in DANG cells
3 | CCCCCCCCCCCCCC(=O)O[C@@H]1[C@@H](C)[C@@]2(O)[C@@H](C=C(CO)C[C@]3(O)C(=O)C(C)=C[C@@H]23)[C@@H]2C(C)(C)[C@]12OC(C)=O [PMA, Phorbol 12-myristate 13-acetate] | – | induced CLDN18 expression in DANG cells | CLDN18 expression (mean fluorescence intensity, fold change on untreated) [2]: induced CLDN18 expression in DANG cells
4 | NC(=O)Nc1sc(-c2ccc(F)cc2)cc1C(N)=O [TPCA-1] | – | induced CLDN18 expression in DANG cells | –
5 | O=C1[O][Pt]2([NH][C@@H]3CCCC[C@H]3[NH]2)[O]C1=O [oxaliplatin, [(1R,2R)-cyclohexane-1,2-diamine](ethanedioato-O,O′)platinum(II)] | upregulate existing CLDN18.2 expression levels in cancer cells | – | –
6 | Verteporfin | – | – | CLDN18 expression (percentage of CLDN18+ cells) ([2]; DANG cells, extended experiment, FIG. 11): induced CLDN18 expression in DANG cells

Reference: patent US20260276643A1, “METHODS FOR PREDICTING AND IMPROVING THERAPEUTIC EFFICACY OF CANCER TREATMENTS AND METHODS FOR CANCER PROGNOSIS” (Università degli studi di Verona, priority 2023, published 2026)
